Columns and labels:
PTV (Adames strain) = assay: PTV infection in C57BL/6 mice in vivo; conditions: 24 h post infection by PTV
Procedure: For 24 h post infection by PTV in vivo the minimum effective s.c. dose of 32 mg/kg for ribavirin and for viramidine was 96 mg/kg given s.c. b.i.d for 5 days. For 24 h post infection by PTV in vivo the minimum effective p.o. dose of 20 mg/kg for ribavirin and for viramidine was 40 mg/kg given p.o. b.i.d for 5 days.

IMP dehydrogenease = conditions: cited from earlier work

In the case of `NC(=O)c1ncn([C@@H]2O[C@H](CO)[C@@H](O)[C@H]2O)n1` [Ribavirin, 1-β-D-ribofuranosyl-1,2,4-triazole-3-carboxamide], the “minimum effective p.o. dose” value (PTV (Adames strain); p.o. b.i.d for 5 days) is given as 20 mg/kg, the “minimum effective s.c. dose” value (PTV (Adames strain); s.c. b.i.d for 5 days) is given as 32 mg/kg and the IMP dehydrogenase inhibition (IMP dehydrogenease) is given as “inhibitor of IMP dehydrogenease”.

Reference: US7638496B2 (priority 2000, dated 2009)
